The values that follow come from ChEMBL document CHEMBL1156098, “Antitumor agents 269. Non-aromatic ring-A neotanshinlactone analog, TNO, as a new class of potent antitumor agents” (2009).

pEC50: −log10 of the molar value. Bounds are passed on as bounds.

Common to all, as to type: functional
The test system of experiment [1] is SK-BR-3. Description: Cytotoxicity against human SK-BR-3 cells after 3 days by SRB assay. Particulars: SK-BR-3, 72 h, read-out: ED50 (the source's name). (The SRB assay estimates cell density from bound dye.)
Experiment [2] deals with ZR-75-1. Briefly: Cytotoxicity against human ZR-75-1 cells after 3 days by SRB assay. The settings on record: ZR-75-1, 72 h, read-out: ED50 (the source's name).
Experiment [3] has as its system MDA-MB-231. Briefly: Cytotoxicity against human MDA-MB-231 cells after 3 days by SRB assay. Particulars: MDA-MB-231, 72 h, read-out: ED50 (the source's name).
Experiment [4] relates to A549. Description: Cytotoxicity against human A549 cells after 3 days by SRB assay. Particulars: A549, 72 h, read-out: ED50 (the source's name).
For experiment [5], the system named is DU-145. Briefly: Cytotoxicity against human DU145 cells after 3 days by SRB assay. Particulars: DU-145, 72 h, read-out: ED50 (the source's name).
Experiment [6] relates to KB. Description: Cytotoxicity against human KB cells after 3 days by SRB assay. Particulars: 72 h, read-out: ED50 (the source's name).
Experiment [7] is described as follows: Cytotoxicity against human KBVIN cells after 3 days by SRB assay. Particulars: 72 h, read-out: ED50 (the source's name).

With `CCc1cccc2c(O)c(-c3occ(C)c3C(=O)O)ccc12`, the pEC50 was 5.47 in experiment [1]; 6.00 in experiment [2]; under 4.43 in experiment [3]; 4.45 in experiment [4]; 4.53 in experiment [5]; 4.51 in experiment [6]. Besides, in experiment [7], the pEC50 was 4.63.

Turning to `Cc1coc2c1c(=O)oc1c3c(ccc12)CCC3`, the pEC50 in experiment [1] is under 4.22; in experiment [2] it was under 4.43; in experiment [3], under 4.43; in experiment [4], under 4.43; in experiment [5], under 4.43; in experiment [6], under 4.43. Further, in experiment [7], the pEC50 is under 4.43.

Regarding `CCOc1c(-c2occ(C)c2CO)ccc2c1CCCC2(C)C`, the pEC50 in experiment [1] was 5.00; in experiment [2] it was 4.84; in experiment [3] it was 4.40; in experiment [4] it was 4.64; in experiment [5], 4.76; in experiment [6], 4.77. In addition, in experiment [7], the pEC50 was 4.82.

As to `COCc1c(C)coc1-c1ccc2c(c1OC)CCCC2(C)C`, the pEC50 was 4.73 in experiment [1]; 4.84 in experiment [2]; 4.32 in experiment [3]; 4.71 in experiment [4]; 4.76 in experiment [5]; 4.94 in experiment [6]. Moreover, the pEC50 in experiment [7] is 4.70.

With `CCOCc1c(C)coc1-c1ccc2c(c1OC)CCCC2(C)C`, the pEC50 was 4.70 in experiment [1]; 4.70 in experiment [2]; 4.37 in experiment [3]; 4.64 in experiment [4]; 4.75 in experiment [5]; 4.67 in experiment [6]. Besides, in experiment [7], the pEC50 is 4.78.

As to `Cc1coc2c1c(=O)oc1c3c(ccc12)CCCC3`, the pEC50 in experiment [1] was 5.29; in experiment [2], 5.08; in experiment [3], 4.41; in experiment [4], 4.99; in experiment [5], 4.49; in experiment [6], 4.50. Further, the pEC50 in experiment [7] was 4.99.

As for `Cc1coc(-c2ccc3c(c2O)CCCC3(C)C)c1CO`, the pEC50 in experiment [1] was 4.67; in experiment [2] it was 4.59; in experiment [3], 4.40; in experiment [4], 4.61; in experiment [5] it was 4.64; in experiment [6] it was 4.66. Further, in experiment [7], the pEC50 is 4.70.

As for `COc1c(-c2occ(C)c2C(=O)O)ccc2c1CCCC2(C)C`, the pEC50 is 4.59 in experiment [1]; 4.38 in experiment [2]; under 4.21 in experiment [3]; 4.27 in experiment [4]; 4.47 in experiment [5]; 4.36 in experiment [6]. The pEC50 in experiment [7] is 4.32.

As to `Cc1cccc2c1ccc1c3occ(C)c3c(=O)oc21`, the pEC50 in experiment [1] was 6.10; in experiment [2], 5.96; in experiment [3], 4.42; in experiment [4], 4.27; in experiment [5], 4.23; in experiment [6], under 4.43. Also, the pEC50 in experiment [7] was under 4.43.

Regarding `COC(=O)c1c(C)coc1-c1ccc2c(c1OC)CCCC2(C)C`, the pEC50 in experiment [1] is 4.57; in experiment [2], 4.46; in experiment [3] it was 4.21; in experiment [4], 4.21; in experiment [5] it was 4.47; in experiment [6], 4.27. Besides, the pEC50 in experiment [7] is 4.28.

`COc1c(-c2occ(C)c2COC(C)=O)ccc2c1CCCC2(C)C`: the pEC50 in experiment [1] is 4.85; in experiment [2], 4.81; in experiment [3], 4.25; in experiment [4] it was 4.54; in experiment [5], 4.78; in experiment [6], 4.60. Besides, the pEC50 in experiment [7] was 4.60.

Turning to `COc1c(-c2occ(C)c2CO)ccc2c1CCCC2(C)C`, the pEC50 in experiment [1] was 4.63; in experiment [2], 4.82; in experiment [3], 4.55; in experiment [4], 4.63; in experiment [5], 4.66; in experiment [6], 4.60. The pEC50 in experiment [7] was 4.66.

In the case of `Cc1coc(-c2ccc3c(c2O)CCCC3(C)C)c1C(=O)O`, the pEC50 was 6.15 in experiment [1]; 5.77 in experiment [2]; 4.61 in experiment [3]; 5.48 in experiment [4]; 5.52 in experiment [5]; 5.33 in experiment [6]. Also, the pEC50 in experiment [7] was 5.33.

Regarding `Cc1coc2c1c(=O)oc1c3c(ccc12)C(C)(C)CCC3`, the pEC50 in experiment [1] is 4.45; in experiment [2], 4.49; in experiment [3] it was under 4.43; in experiment [4], 4.55; in experiment [5] it was 4.50; in experiment [6], 4.52. In experiment [7], the pEC50 is 4.46.

With `Cc1coc(-c2ccc3c(c2O)CCC3)c1C(=O)O`, the pEC50 was 4.52 in experiment [1]; 4.52 in experiment [2]; 4.35 in experiment [3]; 4.38 in experiment [4]; 4.42 in experiment [5]; 4.50 in experiment [6]. In addition, the pEC50 in experiment [7] was 4.52.

As for `Cc1coc(-c2ccc3c(c2O)CCCC3)c1C(=O)O`, the pEC50 in experiment [1] is 4.49; in experiment [2], 4.66; in experiment [3], 4.13; in experiment [4], 4.24; in experiment [5] it was 4.39; in experiment [6], 4.30. Moreover, the pEC50 in experiment [7] was 4.53.
